{"source": "patent US9682928B2", "about": "(NeuroPro Therapeutics, Inc., priority 2009, dated 2017)", "key": {"[1]": {"test_system": "Male Rj: NMRI mice", "test": "Formalin paw test (late phase) in the mouse", "assay_type": "in vivo", "protocol": "The method described herein detects analgesic/anti-inflammatory activity, generally used to test compounds for pain relief, in particular diabetic neuropathy or nociceptive neuropathy. See Wheeler-Aceto, et al. (1991) Psychopharmacology 104: 35-44.\nMice were given an intraplantar injection of 5% formalin (25 μl) into the posterior left paw. This treatment induces paw licking in control animals. Mice were briefly observed at 1 minute intervals between 15 and 50 minutes after the injection of formalin and the number of occasions that the mice were observed licking the injected paw was recorded. There were 10 mice per group and the test was performed “blind.”\nThe experiment included 11 groups. Data was analyzed by comparing treated groups with vehicle control using unpaired Mann-Whitney U tests.\nGabapentin (100 mg/kg i.p.) administered under the same experimental conditions, was used as reference substance. The experiment included several groups. Data was analyzed by comparing treated groups with vehicle control using unpaired Mann-Whitney U tests."}, "[2]": {"test_system": "adult mice (C57/B16)", "test": "Mesial temporal lobe epilepsy model (mice), hippocampal discharges", "assay_type": "in vivo, mouse", "conditions": "50 mg/kg for NTP-2014 and NTP-2026; 150 mg/kg for NTP-2024, NTP-2006, NTP-1007, NTP-1003", "protocol": "Antiepileptic protocol: Up to eight adult mice (C57/B16) are injected with kainate (1 nmol in 50 nl) and are implanted with a bipolar electrode in the dorsal hippocampus using stereotaxic techniques under general anesthesia. […] Drug conditions are counter-balanced, the animals being used as their own controls. Digital EEG recordings are performed in freely moving animals for 20 min pre-injection and 80 min post-injection. The effects of the injected compound are compared versus vehicle injections and reference period (pre-dose). Upon completion of the experiment, standard histological analysis are performed to verify electrode location, cell losses in CA1, CA3 and hilus, as well as dentate gyrus dispersion. Only animals with all characteristics of MTLE are used in data analysis. […] The results below are normalized to the pre-dose condition for each of the treatment group including DMSO and saline vehicle controls. Doses of test article compounds were 50 mg/kg for NTP-2014 and NTP-2026 and 150 mg/kg for NTP-2024, NTP-2006, NTP-1007, and NTP-1003. Therefore the bumetanide, furosemide, piretanide, azosemide, and torsemide esters and amide analogs described herein may be used in therapeutic methods to treat seizures."}, "[3]": {"target": "T1, Na+K+Cl− co-transporter (Rattus norvegicus, UniProt E9PTX9)", "T1 construct": "endogenous in cells; host or cells: A7r5 cells", "T1 sequence (E9PTX9 1-1203)": "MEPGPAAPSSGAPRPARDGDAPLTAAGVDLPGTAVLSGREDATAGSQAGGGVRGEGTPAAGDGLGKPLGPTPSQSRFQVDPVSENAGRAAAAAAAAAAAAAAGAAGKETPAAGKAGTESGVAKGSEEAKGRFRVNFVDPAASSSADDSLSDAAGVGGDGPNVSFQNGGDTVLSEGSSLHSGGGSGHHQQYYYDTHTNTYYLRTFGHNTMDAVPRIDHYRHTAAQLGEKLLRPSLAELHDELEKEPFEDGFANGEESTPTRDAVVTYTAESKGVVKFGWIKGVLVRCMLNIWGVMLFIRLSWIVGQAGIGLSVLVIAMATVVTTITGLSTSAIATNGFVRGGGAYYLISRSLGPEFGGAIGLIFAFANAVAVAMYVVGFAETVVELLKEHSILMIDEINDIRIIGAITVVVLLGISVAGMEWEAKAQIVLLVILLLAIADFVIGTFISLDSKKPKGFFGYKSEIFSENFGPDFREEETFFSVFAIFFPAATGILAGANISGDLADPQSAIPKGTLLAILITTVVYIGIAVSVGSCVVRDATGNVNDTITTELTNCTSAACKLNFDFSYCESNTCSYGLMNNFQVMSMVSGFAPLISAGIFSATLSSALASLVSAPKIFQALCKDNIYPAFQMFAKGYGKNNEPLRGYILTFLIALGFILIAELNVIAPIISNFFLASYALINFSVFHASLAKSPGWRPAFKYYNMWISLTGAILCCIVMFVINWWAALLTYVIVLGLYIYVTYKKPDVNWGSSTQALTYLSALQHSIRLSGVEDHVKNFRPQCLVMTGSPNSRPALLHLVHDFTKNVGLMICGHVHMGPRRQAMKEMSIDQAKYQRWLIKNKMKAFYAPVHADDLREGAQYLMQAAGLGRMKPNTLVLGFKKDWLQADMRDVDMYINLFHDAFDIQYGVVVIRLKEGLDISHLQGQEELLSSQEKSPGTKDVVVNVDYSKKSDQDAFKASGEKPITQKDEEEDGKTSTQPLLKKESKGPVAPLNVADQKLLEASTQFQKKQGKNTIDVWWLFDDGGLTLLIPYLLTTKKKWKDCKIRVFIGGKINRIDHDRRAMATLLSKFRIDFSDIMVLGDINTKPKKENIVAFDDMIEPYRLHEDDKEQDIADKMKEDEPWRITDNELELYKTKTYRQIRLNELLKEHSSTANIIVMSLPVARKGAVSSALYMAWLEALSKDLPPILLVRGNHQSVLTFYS", "test": "Na+K+Cl− cotransporter assay, 86Rb uptake in A7r5 cells", "assay_type": "cell-based", "conditions": "10 minutes at 37° C.", "protocol": "Na^+K^+Cl^− co-transporter activity was measured in vitro in A7r5 cells by measuring their uptake of ^86Rb (0.2 μCi) in 10 minutes at 37° C. as detected by scintillation counting. See Chassande, et al. (1988) “The Na^+/K^+/Cl^− Cotransport in C6 glioma cells. Properties and role in volume regulation.” Eur. J. Biochem. 171: 425433."}, "[4]": {"test": "Blood levels in rat following IP administration", "assay_type": "in vivo"}, "[5]": {"test": "Brain levels in rat following IP administration", "assay_type": "in vivo", "conditions": "NTP-2006 100 mg/kg IP, PBx pretreated"}, "[6]": {"target": "T2, α1β3γ2 GABAA receptor isoform (Homo sapiens, UniProt P14867+P18507+P28472)", "T2 construct": "expressed in transfected cells; host or cells: HEK-293T, transient transfection", "T2 sequence (P14867 28-456)": "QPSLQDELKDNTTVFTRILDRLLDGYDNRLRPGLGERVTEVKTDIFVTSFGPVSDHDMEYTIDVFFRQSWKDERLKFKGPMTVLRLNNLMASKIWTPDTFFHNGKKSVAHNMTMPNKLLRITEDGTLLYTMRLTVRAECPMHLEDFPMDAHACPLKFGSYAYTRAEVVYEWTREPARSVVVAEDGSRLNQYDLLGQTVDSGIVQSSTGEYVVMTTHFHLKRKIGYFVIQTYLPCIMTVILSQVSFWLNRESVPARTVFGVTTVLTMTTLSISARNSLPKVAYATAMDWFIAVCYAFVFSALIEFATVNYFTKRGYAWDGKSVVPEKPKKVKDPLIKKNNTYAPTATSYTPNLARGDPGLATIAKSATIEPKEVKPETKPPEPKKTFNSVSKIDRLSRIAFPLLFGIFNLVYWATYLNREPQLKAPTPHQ", "T2 sequence (P28472 26-473)": "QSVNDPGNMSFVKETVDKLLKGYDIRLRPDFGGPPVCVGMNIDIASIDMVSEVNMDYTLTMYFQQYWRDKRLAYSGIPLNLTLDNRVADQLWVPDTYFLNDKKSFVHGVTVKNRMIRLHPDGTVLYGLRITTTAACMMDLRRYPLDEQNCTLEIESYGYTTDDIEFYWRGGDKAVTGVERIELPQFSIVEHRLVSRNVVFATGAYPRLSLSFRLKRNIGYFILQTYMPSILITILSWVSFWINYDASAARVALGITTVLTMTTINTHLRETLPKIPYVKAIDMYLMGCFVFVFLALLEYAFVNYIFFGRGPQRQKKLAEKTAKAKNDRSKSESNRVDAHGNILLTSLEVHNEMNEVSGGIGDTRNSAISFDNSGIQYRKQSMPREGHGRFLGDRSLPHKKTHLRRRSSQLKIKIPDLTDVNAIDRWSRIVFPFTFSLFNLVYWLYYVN", "T2 sequence (P18507 40-475)": "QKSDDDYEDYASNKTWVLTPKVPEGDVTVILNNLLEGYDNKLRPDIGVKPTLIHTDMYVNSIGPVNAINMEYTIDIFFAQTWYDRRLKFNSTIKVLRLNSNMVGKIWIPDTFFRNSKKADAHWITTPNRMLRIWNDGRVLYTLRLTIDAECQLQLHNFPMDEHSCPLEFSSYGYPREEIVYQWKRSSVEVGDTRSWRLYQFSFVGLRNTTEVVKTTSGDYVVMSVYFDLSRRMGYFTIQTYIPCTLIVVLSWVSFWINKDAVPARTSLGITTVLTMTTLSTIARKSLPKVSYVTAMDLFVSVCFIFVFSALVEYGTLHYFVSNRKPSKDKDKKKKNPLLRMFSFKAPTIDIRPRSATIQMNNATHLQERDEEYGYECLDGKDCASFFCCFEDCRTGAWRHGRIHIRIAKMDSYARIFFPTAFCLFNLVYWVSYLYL", "test": "Whole-cell patch clamp, transfected HEK-293T cells", "assay_type": "cell-based, rat or human", "conditions": "FIG. 36", "protocol": "The addition of GABA to […] activates the recombinant expressed GABAA receptors, creating an ion movement through the ion channel in the GABAA receptor. The electrical current generated by the movement of chloride ions into the cells can be quantified.\nHEK-293T cells were transiently transfected with rat or human GABAA receptor subunits. Whole-cell patch clamp recording was performed at −50 mV unless otherwise indicated. Test compounds was diluted from a freshly made stock in DMSO, GABA was prepared from a frozen stock. For each experiment GABA or GABA+a test compound was applied for 5 seconds, and the electrical current generated by the movement of chloride ions into the cells was measured and recorded as a trace of current versus time.\nCompounds described herein (e.g., NTP-2014) were tested at high and low GABA concentrations against multiple GABAA receptor isoforms (e.g., α1β3γ2, α2β3 γ2, α3β3γ2, α3β3γ2, α4β3γ2, α5β3γ2, α6β3γ2). […] NTP-2014 inhibits the currents in the parasynaptic α4 GABAA receptor isoform in GABAergic interneurons. […]"}}, "note": "Where “and” joins values, the source holds several entries; their conditions need not be identical. Identical values can stand only once.", "data": [{"smiles": "CCCCNc1cc(C(=O)OCC(=O)N(CC)CC)cc(S(N)(=O)=O)c1Oc1ccccc1", "note": "[NTP-2006, N,N-Diethylaminocarbonylmethyl 3-Aminosulfonyl-5-butylamino-4-phenoxybenzoate]", "values": [{"measurement": "Licking Score % Pain Decrease", "setting": "[1]; 50 μmol/kg i.p.", "value": 40.0, "unit": "%"}, {"measurement": "Licking Score % Pain Decrease", "setting": "[1]; 250 μmol/kg i.p.", "value": 61, "unit": "%"}, {"measurement": "Licking Score % Pain Decrease", "setting": "[1]; 500 μmol/kg i.p.", "value": 60, "unit": "%"}, {"measurement": "Anti-inflammatory and analgesic effects in formalin paw test (FIG. 16)", "setting": "[1]; 50, 250, 500 μmole/kg", "value": "show anti-inflammatory and analgesic effects"}, {"measurement": "Licking Score (15 to 50 minutes post-formalin injection) % Change from Control", "setting": "[1]; i.p. 30 minutes before the test, 50 μmol/kg (NTP-2006 23.9, NTP-2024 21.7, NTP-1007 19.3, NTP-2014 21, NTP-2026 23.1 mg/kg)", "value": "−40", "unit": "%"}, {"measurement": "Licking Score (15 to 50 minutes post-formalin injection) % Change from Control", "setting": "[1]; i.p., 250 μmol/kg (NTP-2006 119, NTP-2024 108, NTP-1007 96.5, NTP-2014 105, NTP-2026 116 mg/kg)", "value": "−61", "unit": "%"}, {"measurement": "Licking Score (15 to 50 minutes post-formalin injection) % Change from Control", "setting": "[1]; i.p., 500 μmol/kg (NTP-2006 239, NTP-2024 217, NTP-1007 193, NTP-2014 210, NTP-2026 231 mg/kg)", "value": "−60", "unit": "%"}, {"measurement": "Cumulative duration of hippocampal discharges", "setting": "[2]", "value": "decreased"}, {"measurement": "Number of hippocampal discharges", "setting": "[2]", "value": "decreased"}, {"measurement": "inhibition at 10 µM", "setting": "[3]; read-out: % Inhibition of Control Values", "value": 50, "unit": "%"}, {"measurement": "remaining activity at 10 µM", "setting": "[3]; read-out: % of Control Value", "value": 49.6, "unit": "%"}, {"measurement": "Concentration of NTP-2006 in rat blood", "setting": "[4]; NTP-2006 100 mg/kg IP, PBx pretreated, 15 m", "value": "2.008 ng/mL and 1.728 ng/mL"}, {"measurement": "Concentration of NTP-2006 in rat blood", "setting": "[4]; NTP-2006 100 mg/kg IP, PBx pretreated, 1 h", "value": "BLQ (Below Limit of Quantitation (<1 ng/ml))"}, {"measurement": "Concentration of NTP-2006 in rat blood", "setting": "[4]; NTP-2006 100 mg/kg IP, PBx pretreated, 2 h", "value": "BLQ (Below Limit of Quantitation (<1 ng/ml))"}, {"measurement": "Concentration of NTP-2006 in rat blood", "setting": "[4]; NTP-2006 100 mg/kg IP, PBx pretreated, 4 h", "value": "BLQ (Below Limit of Quantitation (<1 ng/ml))"}, {"measurement": "Concentration of NTP-2006 in rat blood", "setting": "[4]; NTP-2006 100 mg/kg IP, PBx pretreated, 6 h", "value": "BLQ (Below Limit of Quantitation (<1 ng/ml))"}, {"measurement": "Degradation to bumetanide in the blood", "setting": "[4]; i.p., rats", "value": "degrades into bumetanide"}, {"measurement": "concentration at 15 min", "setting": "[4]; rat, whole blood, intraperitoneal, 100 mg/kg, NTP-2006 100 mg/kg IP, PBx pretreated, 15 m", "value": 3.32, "unit": "ng/mL"}, {"measurement": "concentration at 30 min", "setting": "[4]; rat, whole blood, intraperitoneal, 100 mg/kg, NTP-2006 100 mg/kg IP, PBx pretreated, 30 m", "value": 3.35, "unit": "ng/mL"}, {"measurement": "Concentration of NTP-2006 in rat brain", "setting": "[5]; 15 m", "value": "5.259 ng/mL and 2.937 ng/mL"}, {"measurement": "Concentration of NTP-2006 in rat brain", "setting": "[5]; 6 h", "value": "1.523 ng/mL and 1.572 ng/mL"}, {"measurement": "concentration at 15 min", "setting": "[5]; rat, brain, intraperitoneal, 100 mg/kg, 15 m", "value": 2.95, "unit": "ng/mL"}, {"measurement": "concentration at 6 h", "setting": "[5]; rat, brain, intraperitoneal, 100 mg/kg, 6 h", "value": 1.88, "unit": "ng/mL"}]}, {"smiles": "CN1C(=O)CC(=O)N(c2ccccc2)c2cc(Cl)ccc21", "note": "[clobazam]", "values": [{"measurement": "Effect on inhibitory currents in α1 subunit containing GABAA receptors", "setting": "[6]", "value": "increase both the amplitude and time course of inhibitory currents"}]}, {"smiles": "CN1C(=O)CN=C(c2ccccc2)c2cc(Cl)ccc21", "note": "[diazepam]", "values": [{"measurement": "Effect on inhibitory currents in α1 subunit containing GABAA receptors", "setting": "[6]", "value": "increase both the amplitude and time course of inhibitory currents"}]}, {"smiles": "Cc1ccc(-c2nc3ccc(C)cn3c2CC(=O)N(C)C)cc1", "note": "[zolpidem]", "values": [{"measurement": "Effect on inhibitory currents in α1 subunit containing GABAA receptors", "setting": "[6]", "value": "increase both the amplitude and time course of inhibitory currents"}]}]}
